Source: PubChem BioAssay (NCI)
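Each compound was tested at five concentrations against cells in 96-well plates for 48 hours. GI50 marks 50% less growth. The concentration for full growth arrest is given as TGI.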

Legend:
Test in all cases: NCI tumour cell line growth inhibition, 48 h
[1] = tested on: HT29 colon
[2] = tested on: IGROV1 ovarian
[3] = tested on: MALME-3M melanoma
[4] = tested on: NCI-H460 lung
[5] = tested on: NCI-H522 lung
[6] = tested on: SK-MEL-2 melanoma
[7] = tested on: SK-OV-3 ovarian
[8] = tested on: SNB-19 CNS
[9] = tested on: SNB-75 CNS
[10] = tested on: CCRF-CEM leukemia

Structure (SMILES)	TGI [1] [µM]	TGI [2] [µM]	TGI [3] [µM]	TGI [4] [µM]	TGI [5] [µM]	TGI [6] [µM]	TGI [7] [µM]	TGI [8] [µM]	TGI [9] [µM]	GI50 [10] [µM]	TGI [10] [µM]	GI50 [1] [µM]	GI50 [2] [µM]	GI50 [3] [µM]	GI50 [4] [µM]	GI50 [6] [µM]	GI50 [7] [µM]	GI50 [8] [µM]	GI50 [9] [µM]	GI50 [5] [µM]
CCC(=O)Nc1ncnc2ncn(C(=O)CC)c12	> 100	> 100	> 100	> 100	> 100	> 100	> 100	> 100	> 100											
COC(=O)[C@H](Cc1cn(C)cn1)NC(=O)[C@@H](NC(=O)Nc1cc(C(F)(F)F)cc(C(F)(F)F)c1)C(C)(C)C	> 10	> 10	> 10	> 10		> 10	> 10	> 10	> 10	> 10	> 10	> 10	> 10	> 10	> 10	> 10	> 10	> 10	> 10	
O=C(O)CNC(=O)C1NC(C(F)(F)F)(C(F)(F)F)OC1(C(F)(F)F)C(F)(F)F (centres undefined)	> 100	> 100	> 100	> 100	> 100	> 100	> 100	> 100	> 100											
CCCCCCC(O)C(O)CCC(O)C1CCC(CCCCC(O)CC2=CC(C)OC2=O)O1 (centres undefined)	6.82		33.8	26.9	22.8	36		38.8	60.8						10.5	17.4		14.2	24.1	
CNC(=S)N(C1CCCCC1)C1CCCCC1	> 100	> 100	> 100	> 100		> 100	> 100	> 100	> 100		> 100									
Cc1nc2ccccc2c(/C=C/c2ccccc2)c1C(=O)/C=C/c1ccccc1	12	6.18	3.24	4.88		4.08	> 100	2.96		2.51	> 100	2.61	1.84	1.76	1.88	1.92	3.92	1.6		
CCCCCC(=C/c1ccccc1)/C=N/N=C(N)N	3.27	2.72	3.12	3.13		3.2	10.8	4.15	2.7	2	5.04	1.58	1.32	1.51	1.57	1.7	2.95	1.85	1.35	
CCC(C)(C)NS(=O)(=O)c1ccccc1	> 100	> 100	> 100	> 100		> 100	> 100		> 100		> 100									
N#CC(C(=O)O)C(c1c(Cl)cccc1Cl)C(C#N)C(=O)O (centres undefined)	> 100	> 100	> 100	> 100	> 100	> 100	> 100	> 100												
COC(=O)C1=C(O)c2cc3c(cc2[C@H](c2cc(OC)c(OC)c(OC)c2)C1)OCO3	> 100	89.4	> 100	> 100			> 100	> 100	> 100		> 100									
CC1(C)OC2COC(c3[nH]nc4c(=O)[nH]c(=O)[nH]c34)C2O1 (centres undefined)	> 100	> 100	> 100	> 100	> 100	> 100	> 100	> 100												
CCCCCCCCCCCCC(NC(C)=O)(C(=O)OCC)C(=O)OCC		37.2	29.1	24			25.7	25.6	23.8	16.8	41.6		12.6	12.5	7.65		12.6	12.8	11.3	
COc1cc2c(cc1OC)-c1ncc3cc(OC)c(OC)c(OC)c3c1C2		> 100		> 100	41.7	73.9	> 100	> 100	> 100				33.5		31.6	21.7	33	79.9	72	10.3
O=C(CC1SC(=Nc2ccccc2Cl)NC1=O)Nc1ccc(Cl)cc1 (centres undefined)	> 100	> 100	> 100	> 100		> 100	> 100	> 100			> 100									
CCOC(=O)NC(=O)c1cn(C2OC(COC(=O)CCCCCCCCC(=O)OCC3OC(n4cc(C(=O)NC(=O)OCC)c(=O)[nH]c4=O)C4OC(C)(C)OC34)C3OC(C)(C)OC32)c(=O)[nH]c1=O (centres undefined)	> 100	> 100	> 100	> 100		> 100		> 100	> 100		> 100									
COc1cc(=O)oc(/C=C/C=C/C=C/C(C)=C\C2(C)OC(C)C(C)(O)C2O)c1C (centres undefined)	> 100	> 100		> 100		> 100	> 100	> 100	> 100		> 100									
